Reference: paper PMC5356695, “A phase 1 study of oral ridaforolimus in pediatric patients with advanced solid tumors” (Oncotarget, 2016)
Where two headings read alike, the source gives them in different places.

Tested on: pediatric patients with advanced solid tumors
Conditions: for Leukopenia (treatment-related AE): laboratory values only
Experimental: This phase 1, multicenter, open-label study was conducted at a total of 8 study sites (3 study sites in the United States and 5 Innovative Therapies for Children with Cancer [ITCC] Consortium centers [2 in the United Kingdom and 3 in France]) between January 31, 2012, and the data cutoff, January 14, 2014 (ClinicalTrials.gov identifier NCT01431534; European Clinical Trials Database [EudraCT] number 2011-000729-55). An enteric-coated tablet formulation of ridaforolimus was orally administered for 5 consecutive days and not administered for 2 consecutive days per week in 28-day cycles until progression, unacceptable toxicity, or consent withdrawal. […] Dose escalation was conducted by using a modified toxicity probability intervals method that targeted a 30% DLT rate and started at 22 mg/m^2 (the equivalent of the adult RP2D [27], a 40-mg dose in adults with a BSA of 1.8 m^2). […] Dosing was adjusted based on BSA and rounded to the nearest 10-mg tablet. Patients were to be treated at sequentially rising dose levels until a preliminary MTD was identified.
Toxicity was graded according to the National Cancer Institute Common Terminology Criteria for Adverse Events, version 4.0 [42]. Safety data were reported for all patients who received at least 1 dose of the study drug. […] Once the RP2D of ridaforolimus was defined, an expansion cohort to be treated at the RP2D was planned to obtain additional safety, tolerability, and pharmacokinetic data.

CO[C@H]1C[C@@H]2CC[C@@H](C)[C@@](O)(O2)C(=O)C(=O)N2CCCC[C@H]2C(=O)O[C@H]([C@H](C)C[C@@H]2CC[C@@H](OP(C)(C)=O)[C@H](OC)C2)CC(=O)[C@H](C)/C=C(\C)[C@@H](O)[C@@H](OC)C(=O)[C@H](C)C[C@H](C)/C=C/C=C/C=C/1C [ridaforolimus]
Increased alkaline phosphatase (treatment-related AE) (33 mg/m^2 n = 13, grades 3–4): 0 n (%)
Increased bilirubin (treatment-related AE) (33 mg/m^2 n = 13, grades 3–4): 0 n (%)
Increased γ-glutamyltransferase (treatment-related AE) (33 mg/m^2 n = 13, grades 3–4): 1 (8) n (%)
Lymphopenia (treatment-related AE) (33 mg/m^2 n = 13, grades 3–4): 1 (8) n (%)
Nausea (treatment-related AE) (33 mg/m^2 n = 13, grades 3–4): 0 n (%)
Neutropenia (treatment-related AE) (33 mg/m^2 n = 13, grades 3–4): 1 (8) n (%)
Oral herpes (treatment-related AE) (33 mg/m^2 n = 13, grades 3–4): 0 n (%)
Patients with ≥1 treatment-related adverse event (33 mg/m^2 n = 13, grades 3–4): 5 (38) n (%)
Photophobia (treatment-related AE) (33 mg/m^2 n = 13, grades 3–4): 0 n (%)
Rash (treatment-related AE) (33 mg/m^2 n = 13, grades 3–4): 0 n (%)
Stomatitis (treatment-related AE) (33 mg/m^2 n = 13, grades 3–4): 0 n (%)
Thrombocytopenia (treatment-related AE) (33 mg/m^2 n = 13, grades 3–4): 1 (8) n (%)
Vomiting (treatment-related AE) (33 mg/m^2 n = 13, grades 3–4): 0 n (%)
Leukopenia (treatment-related AE) (33 mg/m^2 n = 13, grades 3–4): 0 n (%)
Anemia (treatment-related AE) (Total N = 20, any grade): 8 (40) n (%)
Decreased appetite (treatment-related AE) (Total N = 20, any grade): 2 (10) n (%)
Decreased weight (treatment-related AE) (Total N = 20, any grade): 2 (10) n (%)
Diarrhea (treatment-related AE) (Total N = 20, any grade): 2 (10) n (%)
Dry mouth (treatment-related AE) (Total N = 20, any grade): 2 (10) n (%)
Dysgeusia (treatment-related AE) (Total N = 20, any grade): 3 (15) n (%)
Epistaxis (treatment-related AE) (Total N = 20, any grade): 2 (10) n (%)
Fatigue (treatment-related AE) (Total N = 20, any grade): 9 (45) n (%)
Headache (treatment-related AE) (Total N = 20, any grade): 3 (15) n (%)
Hypercholesterolemia (treatment-related AE) (Total N = 20, any grade): 9 (45) n (%)
Hyperglycemia (treatment-related AE) (Total N = 20, any grade): 2 (10) n (%)
Hypertriglyceridemia (treatment-related AE) (Total N = 20, any grade): 10 (50) n (%)
Hypocalcemia (treatment-related AE) (Total N = 20, any grade): 2 (10) n (%)
Hypokalemia (treatment-related AE) (Total N = 20, any grade): 2 (10) n (%)
Hypophosphatemia (treatment-related AE) (Total N = 20, any grade): 5 (25) n (%)
Increased ALT (treatment-related AE) (Total N = 20, any grade): 10 (50) n (%)
Increased AST (treatment-related AE) (Total N = 20, any grade): 8 (40) n (%)
Increased alkaline phosphatase (treatment-related AE) (Total N = 20, any grade): 2 (10) n (%)
Increased bilirubin (treatment-related AE) (Total N = 20, any grade): 2 (10) n (%)
Increased γ-glutamyltransferase (treatment-related AE) (Total N = 20, any grade): 5 (25) n (%)
Lymphopenia (treatment-related AE) (Total N = 20, any grade): 2 (10) n (%)
Nausea (treatment-related AE) (Total N = 20, any grade): 6 (30) n (%)
Neutropenia (treatment-related AE) (Total N = 20, any grade): 6 (30) n (%)
Oral herpes (treatment-related AE) (Total N = 20, any grade): 2 (10) n (%)
Patients with ≥1 treatment-related adverse event (Total N = 20, any grade): 19 (95) n (%)
Photophobia (treatment-related AE) (Total N = 20, any grade): 3 (15) n (%)
Rash (treatment-related AE) (Total N = 20, any grade): 2 (10) n (%)
Stomatitis (treatment-related AE) (Total N = 20, any grade): 15 (75) n (%)
Thrombocytopenia (treatment-related AE) (Total N = 20, any grade): 13 (65) n (%)
Vomiting (treatment-related AE) (Total N = 20, any grade): 3 (15) n (%)
Leukopenia (treatment-related AE) (Total N = 20, any grade): 7 (35) n (%)
Anemia (treatment-related AE) (Total N = 20, grades 3–4): 0 n (%)
Decreased appetite (treatment-related AE) (Total N = 20, grades 3–4): 0 n (%)
Decreased weight (treatment-related AE) (Total N = 20, grades 3–4): 0 n (%)
Diarrhea (treatment-related AE) (Total N = 20, grades 3–4): 0 n (%)
Dry mouth (treatment-related AE) (Total N = 20, grades 3–4): 0 n (%)
Dysgeusia (treatment-related AE) (Total N = 20, grades 3–4): 0 n (%)
Epistaxis (treatment-related AE) (Total N = 20, grades 3–4): 0 n (%)
Fatigue (treatment-related AE) (Total N = 20, grades 3–4): 0 n (%)
Headache (treatment-related AE) (Total N = 20, grades 3–4): 0 n (%)
Hypercholesterolemia (treatment-related AE) (Total N = 20, grades 3–4): 1 (5) n (%)
Hyperglycemia (treatment-related AE) (Total N = 20, grades 3–4): 0 n (%)
Hypertriglyceridemia (treatment-related AE) (Total N = 20, grades 3–4): 1 (5) n (%)
Hypocalcemia (treatment-related AE) (Total N = 20, grades 3–4): 0 n (%)
Hypokalemia (treatment-related AE) (Total N = 20, grades 3–4): 0 n (%)
Hypophosphatemia (treatment-related AE) (Total N = 20, grades 3–4): 1 (5) n (%)
Increased ALT (treatment-related AE) (Total N = 20, grades 3–4): 5 (25) n (%)
Increased AST (treatment-related AE) (Total N = 20, grades 3–4): 1 (5) n (%)
Increased alkaline phosphatase (treatment-related AE) (Total N = 20, grades 3–4): 0 n (%)
Increased bilirubin (treatment-related AE) (Total N = 20, grades 3–4): 0 n (%)
Increased γ-glutamyltransferase (treatment-related AE) (Total N = 20, grades 3–4): 1 (5) n (%)
Lymphopenia (treatment-related AE) (Total N = 20, grades 3–4): 1 (5) n (%)
Nausea (treatment-related AE) (Total N = 20, grades 3–4): 0 n (%)
Neutropenia (treatment-related AE) (Total N = 20, grades 3–4): 1 (5) n (%)
Oral herpes (treatment-related AE) (Total N = 20, grades 3–4): 1 (5) n (%)
Patients with ≥1 treatment-related adverse event (Total N = 20, grades 3–4): 9 (45) n (%)
Photophobia (treatment-related AE) (Total N = 20, grades 3–4): 0 n (%)
Rash (treatment-related AE) (Total N = 20, grades 3–4): 0 n (%)
Stomatitis (treatment-related AE) (Total N = 20, grades 3–4): 0 n (%)
Thrombocytopenia (treatment-related AE) (Total N = 20, grades 3–4): 2 (10) n (%)
Vomiting (treatment-related AE) (Total N = 20, grades 3–4): 0 n (%)
Leukopenia (treatment-related AE) (Total N = 20, grades 3–4): 0 n (%)
Anemia, treatment-related (all patients, N = 20): 40%
Fatigue, treatment-related (all patients, N = 20): 45%
Hypercholesterolemia, treatment-related (all patients, N = 20): 45%
Hypertriglyceridemia, treatment-related (all patients, N = 20): 50%
Increased ALT, treatment-related (all patients, N = 20): 50%
Increased aspartate aminotransferase (AST), treatment-related (all patients, N = 20): 40%
Leukopenia, treatment-related (all patients, N = 20): 35%
Nausea, treatment-related (all patients, N = 20): 30%
Neutropenia, treatment-related (all patients, N = 20): 30%
Patients with at least 1 treatment-related adverse event (all patients, N = 20): 95%
Serious adverse events related to study treatment (all patients, N = 20): 15%
Stomatitis, treatment-related (all patients, N = 20): 75%
Thrombocytopenia, treatment-related (all patients, N = 20): 65%
Treatment-related grade 3/4 increased ALT (all patients, N = 20): 25%
Treatment-related grade 3/4 thrombocytopenia (all patients, N = 20): 10%
Treatment-related grade 3/4 adverse events (all patients, N = 20 (9 patients)): 45%
Serious adverse events (all patients, N = 20 (12 patients), most disease related): 60%
Time to DLT onset, days (dose level 3, 33 mg/m^2, cycle 1): 22 (cycle 1) days
Recommended phase 2 dose (RP2D) for oral ridaforolimus in children (once daily 5 days/week): 33 mg/m^2
Deaths / grade 5 adverse events related to ridaforolimus (three deaths during the study): No deaths were considered related to ridaforolimus
